pIC50: −log10 of the molar value.
How the values were obtained:
[1] = test system: DHS1 bladder cancer cell line; assay: CellTiter-Glo viability assay, DHS1; type: cell-based; details: FGFR3 status WT, 72 hours, read-out: Ganetespib IC50
Description: (§1) Cellular viability was assessed using the CellTiter-Glo Luminescent Cell Viability Assay (Promega) according to manufacturer protocols. Bladder cancer cell lines were seeded into 96-well plates based on optimal growth rates determined empirically for each line. Twenty-four hours after plating, cells were dosed with graded concentrations of ganetespib for 72 hours. CellTiter-Glo was added (50% v/v) to the cells, and the plates incubated for 10 minutes prior to luminescent detection in a SpectraMax Plus 384 microplate reader (Molecular Devices). Data were normalized to percent of control and IC50 values used to determine the sensitivity of each line. For the comparative analyses with ganetespib and BGJ398, RT112 cells were treated with graded concentrations of each compound for 72 hours and cell viability measured as above. For the evaluation of apoptotic induction, caspase activity was assessed using the Caspase-Glo 3/7 assay (Promega) according to manufacturer protocols. Twenty-four hours after plating, RT112 cells were treated with graded concentrations of ganetespib for 24 hours. Caspase-Glo was added to cells (50% v/v) and the plates incubated for 1 hour prior to luminescent detection.

[2] = test system: RT112 cells; assay: LC-MS/MS bioanalysis of ganetespib and glucuronidated metabolites in RT112 cells; type: in vitro ADME; details: 1 μM ganetespib, 24-hour time course
Description: (§2) In the first set of experiments, RT112 and SW780 cells were treated with graded concentrations of ganetespib or 17-DMAG (10-1000 nM) for 1 and 24 hours. Cell lysates were prepared for measurement of intracellular concentrations of the respective HSP90 inhibitors. RT112 and SW780 cells were also treated with 1 μM ganetespib for 15 minutes, 1, 4, 8 and 24 hours. At each time point cell lysates were prepared and media was collected for analysis of intracellular and secreted concentrations of ganetespib and its glucuronidated metabolites. Bioanalysis was performed on equal protein concentrations from cell lysates or equal volumes of media. All samples were ultimately extracted by protein precipitation and analyzed by LC-MS/MS using an Agilent 1100 HPLC interfaced to an API 4000 tandem mass spectrometer (Applied Biosystems). A Phenomenex Kinetex 2.6 μm C18 (30×2.1 mm) column was used with a run time of 3.5 min per sample.

[3] = test system: 5637 bladder cancer cell line; assay: CellTiter-Glo viability assay, 5637; type: cell-based; details: FGFR3 status WT, 72 hours, read-out: Ganetespib IC50
Description: as §1

[4] = test system: 97-7 bladder cancer cell line; assay: CellTiter-Glo viability assay, 97-7; type: cell-based; details: FGFR3 status S249C, 72 hours, read-out: Ganetespib IC50
Description: as §1

[5] = test system: HT-1197 bladder cancer cell line; assay: CellTiter-Glo viability assay, HT-1197; type: cell-based; details: Homo sapiens, HT1197, FGFR3 status WT, 72 hours, read-out: Ganetespib IC50
Description: as §1

[6] = test system: panel of eleven CRC-derived cell lines; assay: Proliferation assay in CRC-derived cell lines (Celigo confluence); type: cell-based; details: Homo sapiens, 96 h; range across eleven CRC cell lines; four days; read-out: Drug concentrations that inhibited the growth rate by 50%
Description: Eleven cell lines derived from human colorectal cancers (CRC) were cultured in RPMI (Invitrogen, Darmstadt, Germany) supplemented with 10% FCS (ThermoScientific, Waltham Mass., USA), 2 mM L-glutamine and Penicillin-Streptomycin (Invitrogen). Cell-line cross-contaminatino was excluded using short tandem repeat profiling. Specific knockdown of target genes was performed using pre-designed Silencer Select siRNAs (s231075 and s231076, designated s75 and s76) or control siRNAs (scrambled, all from Ambion, Hamburg, Germany) with a final concentration of 5 nM. Overexpression was performed with pCMV-SPORT6 vector constructs. For both up- and downregulation, Lipofectamine 2000 (Invitrogen) was applied in a forward transfection protocol. Ganetespib (Synta Pharma, Lexington Mass., USA) and 17AAG (Calbiochem, Darmstadt, Germany) were dissolved in DMSO (50 mM and 5 mM stocks, respectively) and diluted to the indicated concentrations with culture medium.
For cell proliferation analysis, cells were seeded at 10^5 cells/well in 12-well plates 24 hours prior to treatment. […] Over the course of the 4-day treatment, cell confluence was measured by brightfield microscopy using a Celigo Adherent Cell Cytometer (Brooks, Chelmsford Mass., USA). Confluence was calculated with the Celigo software program.

[7] = test system: RT112 xenografts; assay: RT112 xenograft tumor model; type: in vivo; details: ganetespib 150 mg/kg i.v. once weekly, 3 weeks
Description: CD-1 nude mice (Charles River Laboratories, Wilmington, Mass.) at 7-12 weeks of age were maintained in a pathogen-free environment and all in vivo procedures were approved by the Synta Pharmaceuticals Corp. Institutional Animal Care and Use Committee. RT112 cells (5×10^6) were subcutaneously implanted into female mice and animals bearing established tumors (˜150 mm^3) were randomized into treatment groups of 8. Mice were i.v. dosed with ganetespib (150 mg/kg) once weekly or p.o. dosed with BGJ398 (10 mg/kg) daily, either alone or in combination, for 3 weeks. Tumor growth inhibition was monitored by tumor volume measurements twice weekly. As a measurement of in vivo efficacy, the % T/C value was determined from the change in average tumor volumes of each treated group relative to the vehicle treated animals. Statistical significance was determined using two-way ANOVA followed by Bonferroni post tests.

[8] = test system: J82 bladder cancer cell line; assay: CellTiter-Glo viability assay, J82; type: cell-based; details: FGFR3 status K652E, 72 hours, read-out: Ganetespib IC50
Description: as §1

[9] = test system: BFTC bladder cancer cell line; assay: CellTiter-Glo viability assay, BFTC; type: cell-based; details: FGFR3 status WT, 72 hours, read-out: Ganetespib IC50
Description: as §1

[10] = test system: KU-19-19 bladder cancer cell line; assay: CellTiter-Glo viability assay, KU-19-19; type: cell-based; details: Homo sapiens, FGFR3 status WT, 72 hours, read-out: Ganetespib IC50
Description: as §1

[11] = test system: SW780 cells; assay: LC-MS/MS bioanalysis of ganetespib and glucuronidated metabolites in SW780 cells; type: in vitro ADME; details: 1 μM ganetespib, by 24 hours
Description: as §2

[12] = test system: SW-1710 bladder cancer cell line; assay: CellTiter-Glo viability assay, SW-1710; type: cell-based; details: Homo sapiens, SW1710, FGFR3 status WT, 72 hours, read-out: Ganetespib IC50
Description: as §1

[13] = test system: MGH-U3 bladder cancer cell line; assay: CellTiter-Glo viability assay, MGH-U3; type: cell-based; details: FGFR3 status Y375C, 72 hours, read-out: Ganetespib IC50
Description: as §1

[14] = test system: SW1463 cells; assay: LC-MS/MS bioanalysis of ganetespib in SW1463 cells; type: in vitro ADME, human; details: 1 μM ganetespib, 8 hr
Description: Colon cancer cells were treated with 1 μM ganetespib for 5, 15, 30, 60 or 480 minutes. At each time point, media was collected and cell lysates were generated for subsequent bioanalysis of secreted and intracellular concentrations of ganetespib and its glucuronides. Equal protein concentrations from cell lysates or equal volumes of media were used for the bioanalysis. Samples were extracted by protein precipitation and analyzed by LC-MS/MS using an Agilent 1100 HPLC interfaced to an API 4000 tandem mass spectrometer (Applied Biosystems). A Phenomenex Kinetex 2.6 μm C18 (30×2.1 mm) column was used with a run time of 3.5 min per sample.

CC(C)c1cc(-c2n[nH]c(=O)n2-c2ccc3c(ccn3C)c2)c(O)cc1O [ganetespib] was tested, and the pIC50 [1] was 8.22, the “glucuronidated form of ganetespib within cells” value [2] was “No glucuronidated form of ganetespib was detectable” and the pIC50 [3] was 7.36. It also gave a pIC50 [4] of 7.42, a pIC50 [5] of 7.28 and a pIC50 [6] of 5.60 to 7.44. The T/C value [7] was −23%, the pIC50 [8] was 7.74 and the pIC50 [9] was 7.77. For the same compound, the pIC50 [10] was 7.44, the intracellular ganetespib concentrations [11] was “undetectable” and the pIC50 [12] was 8.22. The pIC50 [13] was 7.28 and the ganetespib present [14] was ~190 nM.

— patent US20160324863A1, “TARGETED CANCER TREATMENT BY HSP90 INHIBITORS GANETESPIB AND NVP-AUY922” (SYNTA PHARMACEUTICALS CORP., priority 2014, published 2016)
